Experimental data: paper PMC12677843, “Multidisciplinary Preclinical Investigations on Ferrocenyl, Ruthenocenyl, and Benzyl Derivatives of Niridazole as New Drug Candidates against Schistosomiasis” (Chemmedchem, 2025)

Tested on: adult S. mansoni
Test: In vitro drug sensitivity assay on adult S. mansoni (microscopic viability scoring)
Assay type: cell-based, Schistosoma mansoni
Conditions: 10 µM, 24 h, in percentage of DMSO control
Procedure: Figure 3 In vitro activity at 50 µM of the 12 compounds on adult S. mansoni. Adult schistosomes were incubated in culture media for 72 h at 37 °C and 5% CO2 with either compound (50 µM) or a DMSO (0.5%) control. The viability of the worms was microscopically evaluated and scored (0—3, in 0.5 steps) every 24 h. Results are from two independent experiments, each performed in duplicate. Drug activities were normalized to the DMSO controls. Data represent mean ± SD in percentage of DMSO control. […]
In vitro evaluation on adult S. mansoni
After a week for acclimatization to the new environment with controlled conditions (temperature: 22 °C ± 2 °C, humidity: 50 % ± 10 %, 12:12 h light/dark photocycle), four-week-old female NMRI mice (Charles River, Sulzfeld, Germany) were subcutaneously infected with approximately 100 cercariae to establish the S. mansoni infection. In the S. mansoni infected mice the worms were allowed to develop for 7 weeks into the adult stage, before they were extracted from the mesenteric veins of the euthanized mice. The adult worms were placed into RPMI 1640 (Gibco, Waltham MA, USA) medium supplemented with 1 % penicillin/streptomycin mixture and 5 % iFCS at 37 °C and 5 % CO 2. The drug sensitivity assay was set up in a 24-well plate with two wells containing each two pairs of S. mansoni worms per compound and concentration.
The final volume per well was 2 mL, containing the culture medium and the corresponding amount of drug dissolved in DMSO. The maximum concentration tested was 50 µM, corresponding to 0.5 % DMSO, to which all the other wells were adapted […]
to, so that all test concentrations contained always the same amount of DMSO.
Additionally, 2 wells with negative controls containing only DMSO and the culture medium were included. After an incubation period of 72 h at 37 °C and 5 % CO 2, the worms were microscopically evaluated. The drug effect was determined 24, 48 and 72 h post-exposure based on the phenotype of the adult worms, using a viability scale ranging from three referring to viable, motile worms with no change in their tegument to zero standing for the death of the worms.
All described in vitro studies with mice involved, were conducted at the Swiss Tropical and Public Health Institute, first in Basel, later in Allschwil, and had the approval by the corresponding veterinary authorities of the Canton Basel-Stadt (permit no. 2070)

SMILES	mean drug effect at 10 µM on adult S. mansoni, 24 h [%]
O=C(Nc1ncc([N+](=O)[O-])s1)[c-]1cccc1.[Ru+2].c1cc[cH-]c1 [Compound B1]	45.53
O=C1N(C[c-]2cccc2)CCN1c1ncc([N+](=O)[O-])s1.[Fe+2].c1cc[cH-]c1 [Compound A3]	30.75
C=CC([c-]1cccc1)N1CCN(c2ncc([N+](=O)[O-])s2)C1=O.[Fe+2].c1cc[cH-]c1 (racemic) [Compound A5]	36.19
O=C1N(C[c-]2cccc2)CCN1c1ncc([N+](=O)[O-])s1.[Ru+2].c1cc[cH-]c1 [Compound B2]	31.28

Same assay, conditions: 10 µM, 48 h, in percentage of DMSO control

SMILES	mean drug effect at 10 µM on adult S. mansoni, 48 h [%]
O=C(Nc1ncc([N+](=O)[O-])s1)[c-]1cccc1.[Ru+2].c1cc[cH-]c1 [Compound B1]	44.35
O=C1N(C[c-]2cccc2)CCN1c1ncc([N+](=O)[O-])s1.[Fe+2].c1cc[cH-]c1 [Compound A3]	44.28
C=CC([c-]1cccc1)N1CCN(c2ncc([N+](=O)[O-])s2)C1=O.[Fe+2].c1cc[cH-]c1 (racemic) [Compound A5]	57.59
O=C1N(C[c-]2cccc2)CCN1c1ncc([N+](=O)[O-])s1.[Ru+2].c1cc[cH-]c1 [Compound B2]	44.99

Same assay, conditions: 10 µM, 72 h, in percentage of DMSO control

SMILES	mean drug effect at 10 µM on adult S. mansoni, 72 h [%]
O=C(Nc1ncc([N+](=O)[O-])s1)[c-]1cccc1.[Ru+2].c1cc[cH-]c1 [Compound B1]	57.20
O=C1N(C[c-]2cccc2)CCN1c1ncc([N+](=O)[O-])s1.[Fe+2].c1cc[cH-]c1 [Compound A3]	66.09
O=C1N(C[c-]2cccc2)CCN1c1ncc([N+](=O)[O-])s1.[Ru+2].c1cc[cH-]c1 [Compound B2]	65.57

Same assay, conditions: 50 µM, 72 h incubation, normalized to DMSO control; active if ≥60%

SMILES	drug effect at 50 µM on adult S. mansoni
O=C(Nc1ncc([N+](=O)[O-])s1)[c-]1cccc1.[Ru+2].c1cc[cH-]c1 [Compound B1]	less active than niridazole
O=C1N(C[c-]2cccc2)CCN1c1ncc([N+](=O)[O-])s1.[Fe+2].c1cc[cH-]c1 [Compound A3]	less active than niridazole
O=C1N(C[c-]2cccc2)CCN1c1ncc([N+](=O)[O-])s1.[Ru+2].c1cc[cH-]c1 [Compound B2]	less active than niridazole

Same assay, conditions: 24 h drug exposure, 37 °C, 5% CO2; read-out: EC50 on adult S. mansoni, 24 h

SMILES	EC50 [µM]
O=C1N(C[c-]2cccc2)CCN1c1ncc([N+](=O)[O-])s1.[Fe+2].c1cc[cH-]c1 [Compound A3]	50.5
C=CC([c-]1cccc1)N1CCN(c2ncc([N+](=O)[O-])s2)C1=O.[Fe+2].c1cc[cH-]c1 (racemic) [Compound A5]	> 50
O=C1N(C[c-]2cccc2)CCN1c1ncc([N+](=O)[O-])s1.[Ru+2].c1cc[cH-]c1 [Compound B2]	38.1

Same assay, conditions: 48 h drug exposure, 37 °C, 5% CO2; read-out: EC50 on adult S. mansoni, 48 h

SMILES	EC50 [µM]
O=C1N(C[c-]2cccc2)CCN1c1ncc([N+](=O)[O-])s1.[Fe+2].c1cc[cH-]c1 [Compound A3]	9.7
C=CC([c-]1cccc1)N1CCN(c2ncc([N+](=O)[O-])s2)C1=O.[Fe+2].c1cc[cH-]c1 (racemic) [Compound A5]	5.3

Same assay, conditions: 72 h drug exposure, 37 °C, 5% CO2; read-out: EC50 on adult S. mansoni, 72 h

SMILES	EC50 [µM]
O=C(Nc1ncc([N+](=O)[O-])s1)[c-]1cccc1.[Ru+2].c1cc[cH-]c1 [Compound B1]	6.9
O=C1N(C[c-]2cccc2)CCN1c1ncc([N+](=O)[O-])s1.[Fe+2].c1cc[cH-]c1 [Compound A3]	3.5
C=CC([c-]1cccc1)N1CCN(c2ncc([N+](=O)[O-])s2)C1=O.[Fe+2].c1cc[cH-]c1 (racemic) [Compound A5]	1.5
O=C1N(C[c-]2cccc2)CCN1c1ncc([N+](=O)[O-])s1.[Ru+2].c1cc[cH-]c1 [Compound B2]	3.2

Same assay, conditions: potency on adult S. mansoni relative to niridazole, EC50 at 72 h

SMILES	Fold activity of niridazole
O=C1N(C[c-]2cccc2)CCN1c1ncc([N+](=O)[O-])s1.[Fe+2].c1cc[cH-]c1 [Compound A3]	1.6
C=CC([c-]1cccc1)N1CCN(c2ncc([N+](=O)[O-])s2)C1=O.[Fe+2].c1cc[cH-]c1 (racemic) [Compound A5]	3.8
O=C1N(C[c-]2cccc2)CCN1c1ncc([N+](=O)[O-])s1.[Ru+2].c1cc[cH-]c1 [Compound B2]	1.8

Tested on: juvenile S. mansoni
Test: In vitro drug sensitivity assay on juvenile S. mansoni
Assay type: cell-based, Schistosoma mansoni
Conditions: 72 h incubation, 37 °C, 5% CO2
Procedure: Juvenile worms were gained through cultivation of NTS as previously described. 10 In short, NTS were obtained as described above, then directly after the mechanical transformation process the newly transformed schistosomula were placed in a special culturing medium. The culture medium consists of Panserin 401, w: L-Glutamine, serum free all-round medium (Pan Biotech, Aidenbach, Germany) supplemented with 20 % human serum and 500 U/mL penicillin, […] streptomycin (LuBioScience, Switzerland). 96-well transparent polystyrene flat bottom plates were used for the in vitro growth procedure, with 40 to 60 NTS per well in 100 µL culture medium. The bordering wells of the plate were filled solely with medium to counteract evaporation and to keep the humidity as steady as possible. The plates were incubated for 21 days at 5 % CO2 and at 37 °C, with regular medium changes every 3 to 4 days. After the 21 days culturing period, the schistosomulae developed into juveniles. For the drug sensitivity assay, juvenile worms were incubated over 72 h (5 % CO 2 and 37 °C) with the test compound in the same medium, as used for the culturing process. In a 96-well plate, 250 µL medium containing the test compound and six juvenile worms, ideally of both sexes were placed in each well. All compounds were tested twice independently at 50, 10, 5 and 1 µM in duplicates. The viability of the worms was evaluated microscopically after 24, 48 and 72 h of continuous drug exposure using the same phenotypic screening method as described before. […]

SMILES	EC50 [µM]
O=C(Nc1ncc([N+](=O)[O-])s1)[c-]1cccc1.[Ru+2].c1cc[cH-]c1 [Compound B1]	> 50
O=C1N(C[c-]2cccc2)CCN1c1ncc([N+](=O)[O-])s1.[Fe+2].c1cc[cH-]c1 [Compound A3]	5.7
C=CC([c-]1cccc1)N1CCN(c2ncc([N+](=O)[O-])s2)C1=O.[Fe+2].c1cc[cH-]c1 (racemic) [Compound A5]	12.2
O=C1N(C[c-]2cccc2)CCN1c1ncc([N+](=O)[O-])s1.[Ru+2].c1cc[cH-]c1 [Compound B2]	8

Tested on: S. mansoni newly transformed schistosomula (NTS)
Test: In vitro evaluation on newly transformed schistosomula (NTS)
Assay type: cell-based, Schistosoma mansoni
Conditions: 72 h incubation, 37 °C, 5% CO2
Procedure: 2. Experimental section for biological experiments
Stock solutions of the test compounds
Stock solution of a concentration of 10 mM in pure DMSO (Sigma-Aldrich, Switzerland) were prepared of the 12 compounds, these stock solutions were used for all in vitro evaluations from activity tests in S. mansoni to the cytotoxic determinations in HUH7 hepatocyte-derived carcinoma cells, and in SH-SY5Y neuroblastoma cells.
The solutions were thoroughly vortexed and sonicated to enable a good dissolution of the compounds and homogenous stock solutions.
2.1 In vitro evaluations in S. mansoni
In vitro evaluation on newly transformed schistosomula (NTS)
To obtain newly transformed schistosomula (NTS) the lifecycle of S. mansoni (strain originates from West Africa, Liberia) is maintained at the Swiss Tropical and Public Health Institute (Swiss TPH). As previously described, cercariae are collected from infected Biomphalaria glabrata snails and then mechanically transformed into NTS. 8 After HBSS (Gibco, Waltham MA, USA) washing to get rid of the detached tails, the NTS were kept overnight (min. 12 h, max. 24 h) in culture medium at 37 °C and 5 % CO2 to complete their transformation process, before the drug sensitivity assay was started. The drug assays were performed in the same culture medium consisting of medium M199 (Gibco, Waltham MA, USA) supplemented with 5 % v/v inactivated fetal calf serum (iFCS; Bioconcept AG, Allschwil, Switzerland), 1% antibiotics mixture developed by Mäser et al., 9 and 1 % penicillin 10,000 U/mL, and streptomycin 10 mg/mL solution (Sigma-Aldrich, Buchs, Switzerland). The assay was performed in a 96-well plate, with 30−40 NTS per well in a final volume of 250 μL. NTS incubated in culture medium containing 0.5 % DMSO but no drug served as negative controls.
Microscopic evaluation was performed after 24, 48 and 72 h of incubation of the parasites at 37 °C and 5 % CO 2. Their overall viability was scored from 0 (death) to 3 (full viability) by a phenotypic screening method based on their motility, morphology, […]
and granularity. […]

SMILES	EC50 [µM]
O=C(Nc1ncc([N+](=O)[O-])s1)[c-]1cccc1.[Ru+2].c1cc[cH-]c1 [Compound B1]	> 50
O=C1N(C[c-]2cccc2)CCN1c1ncc([N+](=O)[O-])s1.[Fe+2].c1cc[cH-]c1 [Compound A3]	> 50
C=CC([c-]1cccc1)N1CCN(c2ncc([N+](=O)[O-])s2)C1=O.[Fe+2].c1cc[cH-]c1 (racemic) [Compound A5]	> 50
O=C1N(C[c-]2cccc2)CCN1c1ncc([N+](=O)[O-])s1.[Ru+2].c1cc[cH-]c1 [Compound B2]	> 50

Tested on: not listed separately
Test: Stability in DMSO-d6 monitored by 1H NMR
Assay type: physicochemical
Conditions: room temperature, 0, 6, 24, 30 and 48 h
Procedure: Stability is a key factor that needs to be investigated in medicinal chemistry, particularly with metal complexes.^[ [44] ^] We randomly chose four niridazole derivatives that we dissolved in DMSO‐d 6 (A3, B1, C2, and D1). We then monitored by ^1H NMR spectroscopy any change in the spectra after 0, 6, 24, 30, and 48 h at room temperature. No shifted peaks or new peaks were found for all the tested compounds over 2 days, showing that they are stable in DMSO‐d 6. The NMR spectra of these studies can be found in the Supporting Information (Figure S32–S35).
Figure S31 DEPT spectrum of C2
1H NMR spectra for stability
Preparation of the control samples for 1H NMR analysis: Compounds B1, D1, A3 and
C2 were dissolved in DMSO- d6. Compound A2 was dissolved in DMSO- d6 with D2O
(4:1, v/v). NMR spectra were recorded in deuterated solvents on Bruker Avance-400
in the room temperature for 0, 6, 24, 30 and 48 hours or 0, 3, 6 and 24 hours. […]

SMILES	stability in DMSO-d6 (1H NMR)
O=C(Nc1ncc([N+](=O)[O-])s1)[c-]1cccc1.[Ru+2].c1cc[cH-]c1 [Compound B1]	stable
O=C1N(C[c-]2cccc2)CCN1c1ncc([N+](=O)[O-])s1.[Fe+2].c1cc[cH-]c1 [Compound A3]	stable
